Where two headings read alike, the source gives them in different places.
Legend:
recombinant human PAI-1 [1] = biological target: T1, recombinant human PAI-1 (Homo sapiens, UniProt P05121); assay: biochemical
recombinant human PAI-1 [2] = biological target: T1, recombinant human PAI-1; assay: Test Example 2: Human PAI-1 Inhibitory Activity (pH 7.4 HEPES buffer, 10 minutes incubation with two-chain tPA); format: biochemical; set-up: purchased Molecular Innovations, Inc; conditions: read-out: Inhibition Rate of PAI-1 Activity (%)
Experimental: 0.1 M HEPES, 0.1 M NaCl. 1 mM EDTA. 0.1 % Polyethylene glycol 8,000 (Hampton Research Corporation),
2 mM Dimethyldecylphoshine oxide [Apo-10] (Fluka Corporation)

recombinant rat PAI-1 = biological target: T2, recombinant rat PAI-1 (Rattus norvegicus, UniProt P20961); assay: biochemical; conditions: read-out: Inhibition Rate of PAI-1 Activity (%)
T2 sequence (P20961 24-402): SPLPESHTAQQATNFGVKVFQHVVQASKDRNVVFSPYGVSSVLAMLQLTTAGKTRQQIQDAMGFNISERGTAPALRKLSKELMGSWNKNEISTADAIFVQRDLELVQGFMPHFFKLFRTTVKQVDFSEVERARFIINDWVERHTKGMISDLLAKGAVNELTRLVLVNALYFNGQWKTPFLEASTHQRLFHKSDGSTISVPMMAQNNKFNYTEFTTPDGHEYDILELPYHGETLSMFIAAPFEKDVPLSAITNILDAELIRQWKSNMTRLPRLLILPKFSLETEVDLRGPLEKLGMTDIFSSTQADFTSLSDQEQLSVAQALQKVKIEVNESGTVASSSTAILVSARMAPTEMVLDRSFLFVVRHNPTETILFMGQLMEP

[3] = read-out: Inhibition Rate of PAI-1 Activity (%), Compound Concentration 5µM
[4] = read-out: Inhibition Rate of PAI-1 Activity (%), Compound Concentration 10µM
[5] = read-out: Inhibition Rate of PAI-1 Activity (%), Compound Concentration 25µM
[6] = read-out: Inhibition Rate of PAI-1 Activity (%)

T1 sequence (P05121 24-402): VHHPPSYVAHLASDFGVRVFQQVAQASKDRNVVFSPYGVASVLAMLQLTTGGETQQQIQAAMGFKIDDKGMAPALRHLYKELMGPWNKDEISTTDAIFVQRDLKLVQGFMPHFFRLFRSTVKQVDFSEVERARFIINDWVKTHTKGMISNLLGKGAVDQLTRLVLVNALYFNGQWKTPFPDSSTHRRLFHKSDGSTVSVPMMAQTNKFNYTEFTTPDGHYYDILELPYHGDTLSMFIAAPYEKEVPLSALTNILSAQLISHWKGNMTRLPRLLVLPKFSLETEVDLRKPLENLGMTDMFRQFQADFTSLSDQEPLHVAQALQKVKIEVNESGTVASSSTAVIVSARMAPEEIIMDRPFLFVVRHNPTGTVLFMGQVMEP

inhibition at 5 µM (recombinant human PAI-1 [1]; [6]) | inhibition at 10 µM (recombinant human PAI-1 [1]; [6]) | inhibition at 25 µM (recombinant human PAI-1 [1]; [6]) | SMILES | inhibition at 5 µM (recombinant human PAI-1 [1]; [3]) | inhibition at 10 µM (recombinant human PAI-1 [1]; [4]) | inhibition at 25 µM (recombinant human PAI-1 [1]; [5]) | inhibition at 0.1 µM (recombinant human PAI-1 [2]) | inhibition at 0.3 µM (recombinant human PAI-1 [2]) | inhibition at 1 µM (recombinant human PAI-1 [2]) | inhibition at 3 µM (recombinant human PAI-1 [2]) | inhibition at 0.3 µM (recombinant rat PAI-1) | inhibition at 1 µM (recombinant rat PAI-1) | inhibition at 3 µM (recombinant rat PAI-1) | inhibition at 10 µM (recombinant rat PAI-1) | inhibition at 5 µM (recombinant human PAI-1 [1]; read-out: Inhibition Rate of PAI Activity (%), Compound Concentration 5µM) | inhibition at 10 µM (recombinant human PAI-1 [1]; read-out: Inhibition Rate of PAI Activity (%), Compound Concentration 10µM)
– | – | – | CCCOc1ccc(-c2ccc(OC(F)(F)F)cc2)cc1N(Cc1ccc(C(C)(C)C)cc1)C(=O)C(=O)O [Compound 188] | 73% | 91% | 91% | 0% | 0% | 33% | 97% | 0% | 14% | 84% | > 99% | – | –
– | – | – | CCCCOc1ccc(-c2ccc(OC(F)(F)F)cc2)cc1N(CCCCc1ccccc1)C(=O)C(=O)O [Compound 231] | 81% | 97% | 94% | 0% | 6% | 34% | 98% | 3% | 18% | 89% | > 99% | – | –
78% | 95% | – | CC(C)(C)c1ccc(CN(C(=O)C(=O)O)c2ccc(OCc3ccccc3)c(-c3ccc(OC(F)(F)F)cc3)c2)cc1 [Compound 212] | – | – | – | 5% | 15% | 64% | 98% | 8% | 40% | 73% | 67% | – | –
87% | 96% | – | CC(C)Oc1ccc(N(Cc2ccc(C(C)(C)C)cc2)C(=O)C(=O)O)cc1-c1ccc(OC(F)(F)F)cc1 [Compound 211] | – | – | – | 9% | 16% | 43% | 96% | 4% | 17% | 78% | 87% | – | –
63% | 90% | – | CCCCOc1ccc(N(CCCCc2ccccc2)C(=O)C(=O)O)cc1-c1ccc(OC(F)(F)F)cc1 [Compound 227] | – | – | – | 0% | 7% | 41% | 98% | 0% | 14% | 77% | 95% | – | –
– | – | – | CCC(CC)Oc1ccc(N(CCCc2ccccc2)C(=O)C(=O)O)cc1-c1ccc(OC(F)(F)F)cc1 [Compound 230] | 75% | 95% | 92% | 0% | 8% | 27% | 96% | 0% | 13% | 83% | 94% | – | –
– | – | – | CC(C)(C)c1ccc(COc2ccc(-c3ccc(OC(F)(F)F)cc3)cc2CC(=O)O)cc1 [Compound 9] | – | – | – | 0% | 6% | 25% | 98% | 0% | 15% | 71% | 96% | 90% | 99%
56% | 81% | 91% | CC(C)(Oc1cc(-c2ccc(OC(F)(F)F)cc2)ccc1OCCCCc1ccccc1)C(=O)O [Compound 116] | – | – | – | 0% | 0% | 15% | 89% | 2% | 12% | 43% | 98% | – | –
42% | 83% | 97% | CC(C)(C)c1ccc(COc2c(CCC(=O)O)cccc2-c2ccc(OC(F)(F)F)cc2)cc1 [Compound 88] | – | – | – | 0% | 5% | 25% | 97% | 0% | 0% | 51% | 83% | – | –
93% | 84% | – | CCN(CC)c1ccc(N(Cc2ccc(C(C)(C)C)cc2)C(=O)C(=O)O)cc1-c1ccc(OC(F)(F)F)cc1 [Compound 213] | – | – | – | 0% | 10% | 48% | 98% | 8% | 26% | 90% | 78% | – | –
90% | 92% | – | Cc1cc(N(C)C)c(-c2ccc(OC(F)(F)F)cc2)cc1N(Cc1ccc(C(C)(C)C)cc1)C(=O)C(=O)O [Compound 215] | – | – | – | 7% | 18% | 54% | 95% | 2% | 16% | 84% | 97% | – | –
– | – | – | CC(C)(C)c1ccc(C(c2ccccc2)N(C(=O)C(=O)O)c2ccc(-c3ccc(OC(F)(F)F)cc3)cc2)cc1 (centres unmarked) [Compound 222] | 74% | 91% | – | 0% | 3% | 45% | > 99% | 3% | 32% | 91% | – | – | –
– | – | – | CC(C)(C)c1ccc(Oc2cccc(-c3ccc(OC(F)(F)F)cc3)c2OCC(=O)O)cc1 [Compound 113] | 58% | 85% | 97% | 0% | 6% | 26% | 73% | 0% | 9% | 33% | 99% | – | –
– | – | – | CC(C)(C)c1ccc(COc2ccc(Oc3ccc(OC(F)(F)F)cc3)cc2CCC(=O)O)cc1 [Compound 96] | 36% | 75% | 99% | 6% | 7% | 26% | 96% | 3% | 14% | 49% | 96% | – | –
– | – | – | CCN(CC)c1ccc(N(CCCc2ccccc2)C(=O)C(=O)O)c(-c2ccc(OC(F)(F)F)cc2)c1 [Compound 238] | 76% | 95% | 93% | 0% | 0% | 21% | 87% | 0% | 8% | 46% | 98% | – | –
– | – | – | CC(C)(C)c1ccc(CN(C(=O)C(=O)O)c2ccc(Cl)cc2-c2ccc(OC(F)(F)F)cc2)cc1 [Compound 192] | 80% | 95% | 94% | 0% | 1% | 35% | > 99% | 0% | 8% | 76% | 96% | – | –
– | – | – | CC(C)(C)c1ccc(Oc2cccc(-c3ccc(OC(F)(F)F)cc3)c2CCC(=O)O)cc1 [Compound 94] | 56% | 90% | 97% | 0% | 3% | 24% | 96% | 0% | 15% | 45% | 91% | – | –
– | – | – | CC(C)c1ccc(Oc2ccc(CCC(=O)O)c(Oc3ccc(C(C)C)cc3)c2)cc1 [Compound 73] | 30% | 66% | > 99% | 0% | 6% | 27% | 98% | 0% | 13% | 75% | 98% | – | –
– | – | – | O=C(O)CCc1c(Oc2ccc(OC(F)(F)F)cc2)cccc1Oc1ccc(OC(F)(F)F)cc1 [Compound 98] | 57% | 84% | 98% | 0% | 2% | 25% | 84% | 0% | 10% | 39% | 95% | – | –
– | – | – | CC(C)(C)c1ccc(COc2cccc(Oc3ccc(OC(F)(F)F)cc3)c2CCC(=O)O)cc1 [Compound 86] | 47% | 80% | 98% | 0% | 0% | 22% | 87% | 0% | 12% | 34% | 69% | – | –
